Experiments:
ITK kinase domain = target: T1, ITK kinase domain (Homo sapiens, UniProt Q08881); assay: In vitro kinase assay (HITHUNTER enzyme fragment complementation), ITK; assay type: biochemical; details: Table 8; wild type ITK kinase domain; read-out: IC50 wild-type ITK
T1 construct: N-terminally His-tagged ITK kinase domain (amino acids 352-617); His (N); made in house
T1 sequence (Q08881 352-617): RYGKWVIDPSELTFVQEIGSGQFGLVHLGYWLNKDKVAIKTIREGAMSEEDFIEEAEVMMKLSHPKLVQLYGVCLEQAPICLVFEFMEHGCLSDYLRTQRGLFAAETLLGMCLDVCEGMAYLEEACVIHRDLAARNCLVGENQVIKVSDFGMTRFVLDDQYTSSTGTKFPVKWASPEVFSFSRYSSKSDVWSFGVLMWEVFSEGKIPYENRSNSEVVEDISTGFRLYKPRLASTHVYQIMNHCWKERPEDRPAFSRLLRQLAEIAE
Experimental: Compounds were screened using the HITHUNTER™ enzyme fragment complementation method (Discoverx). Briefly, a recombinantly produced, N-terminally His-tagged ITK kinase domain (amino acids 352-617) was incubated with various concentrations of individual compounds. ATP and substrate were added, and the kinase reaction was allowed to proceed for 2-16 hours. Commercially available detection reagents were added and allowed to react for 2-4 hours. The reaction was evaluated by luminescence. Initial results were confirmed using full-length recombinant ITK protein.
(§1) In order to confirm the mechanism by which compounds depicted herein interact with the kinase domain of Tec and EGFR kinases, we created a point mutant of the ITK kinase domain, whereby the key amino acid, namely C442 was mutated to alanine. The protein was expressed in a commercial baculovirus expression system using the manufacturer's general protocol (Invitrogen, pBlueBac). Protein was expressed and purified using standard techniques. […] While the activity of WT-ITK was inhibited by compounds depicted in this application, the same compounds had no activity towards the C442A mutant kinase domain.

C442A-ITK kinase domain = target: T2, C442A-ITK kinase domain (Homo sapiens, UniProt Q08881, C442A); assay: In vitro kinase assay, C442A point mutant of ITK kinase domain; assay type: biochemical; details: Table 8
T2 construct: we created a point mutant of the ITK kinase domain; made in house; host or cells: baculovirus expression system (Invitrogen, pBlueBac)
T2 sequence (Q08881 363-615 C442A limits assumed): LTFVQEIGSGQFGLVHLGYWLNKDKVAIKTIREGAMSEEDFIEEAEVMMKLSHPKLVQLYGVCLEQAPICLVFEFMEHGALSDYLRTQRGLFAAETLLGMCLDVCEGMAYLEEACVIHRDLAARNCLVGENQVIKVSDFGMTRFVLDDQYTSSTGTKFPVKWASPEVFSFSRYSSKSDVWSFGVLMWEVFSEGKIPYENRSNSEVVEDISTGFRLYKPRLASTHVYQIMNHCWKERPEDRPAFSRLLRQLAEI
Text: as §1

IC50 (ITK kinase domain): 11.1 nM | IC50 (C442A-ITK kinase domain): > 10000 nM
Structure (SMILES): NC(=O)c1ccc2cc(C(=O)CCN3CCOCC3)ccc2c1 [drawing 259]

— patent US20150290200A1, “INTRACELLULAR KINASE INHIBITORS” (Pharmacyclics Inc., priority 2006, published 2015)
